The test system of one experiment is Echinochloa crus-galli. The experiment is described as follows: Herbicidal effect, foliar spray pot test in greenhouse (Example 102). It counts as in vivo. The conditions noted are these: sprayed at 2-3 leaf stage, a week after, scale 0-100. Here is the method:
(§1) A plastic pot was filled with a commercially-available culture soil, and thereto inubie (common barnyardgrass; Echinochloa crus-galli) or akinoenokorogusa (giant foxtail; Setaria faberi) was seeded, and covered with the soil to about 0.5 cm, followed by growing the weeds in a greenhouse. When the weeds grew to two to three leaf stage, a spray liquid of the compound X, a spray liquid of 2,4-D choline salt, or a spray liquid of the present composition was uniformly sprayed to the whole plants so that the application rate might be a predetermined value. The spray liquid of the present composition was prepared by mixing the spray liquid of the compound X with the spray liquid of 2,4-D choline salt. The spray liquid of the compound X was prepared by mixing a predetermined amount of the formulation X with deionized water. The spray liquid of 2,4-D choline salt was prepared by dissolving 2,4-D choline salt with a 2 wt % solution of TWEEN® 20 (polyoxyethylenesorbitan fatty acid ester, manufactured by MP Biomedicals) in dimethylformamide, followed by mixing with deionized water. After applying the spray liquid, the plants were placed in a greenhouse for a week. A herbicidal effect was evaluated by classifying the effect into 101 stages from 0 (no effect) to 100 (completely dead).
(§2) The expected value of the herbicidal effect in the case of mixed use was calculated from the result of the herbicidal effect in the case of single use of each of the compounds (the value of A or B) according to the formula of Colby ((expected value)=100−(100−A)×(100−B)/100).

The test system of a further experiment is Setaria faberi. The description is as above. It is filed as in vivo. The conditions noted are these: sprayed at 2-3 leaf stage, a week after, scale 0-100. Here is the method:
as §1, §2

[1] abbreviates: 2,4-D choline salt 50 g/ha alone.
[2] abbreviates: 2,4-D choline salt 500 g/ha alone.

SMILES strings stand for the structures.

In the case of `C[N+](C)(C)CCO.O=C([O-])COc1ccc(Cl)cc1Cl` [2,4-D choline salt], the “Herbicidal effect on Echinochloa crus-galli (observed value)” value in the experiment with Echinochloa crus-galli (setting [1]) is given as 0; in the experiment on Echinochloa crus-galli (setting [2]) it was 10. Moreover, the entries for the “Herbicidal effect on Setaria faberi (observed value)” value in the experiment with Setaria faberi (setting [1]) and in the experiment with Setaria faberi (setting [2]) were 0 and 10, respectively.

As to `CCOC(=O)COc1ncccc1Oc1cc(-n2c(=O)cc(C(F)(F)F)n(C)c2=O)c(F)cc1Cl` [Compound X, ethyl [3-[2-chloro-4-fluoro-5-(1-methyl-6-trifluoromethyl-2,4-dioxo-1,2,3,4-tetrahydropyrimidin-3-yl)phenoxy]-2-pyridyloxy]acetate], the “Herbicidal effect on Echinochloa crus-galli (observed value)” value in the experiment on Echinochloa crus-galli (Compound X 5 g/ha alone) is 20; in the experiment on Echinochloa crus-galli (Compound X 10 g/ha alone) it was 35. The “Herbicidal effect on Setaria faberi (observed value)” value in the experiment on Setaria faberi (Compound X 5 g/ha alone) turned out to be 30; with Setaria faberi (Compound X 10 g/ha alone), 45.

The record behind these values is patent publication US10701936B2, “Herbicidal composition and method for controlling weeds” (Sumitomo Chemical Company, Limited, priority 2016, dated 2020).
